# Assay results from PMC10266261, “A High-Throughput Approach to Identify Specific Neurotoxicants / Developmental Toxicants in Human Neuronal Cell Function Assays” (ALTEX, 2018).
# Like-named read-outs stand apart in the source and are kept apart here.
# Columns and labels:
# [1] = test system: LUHMES cells; assay: cells; assay type: cell-based, human; details: for classification / outcome after hit confirmation or re-testing (EC50 prediction model): EC50 ratio V/NA ≥ 4 specific, < 4 cytotoxic; for LOAEL for neurite area (lowest tested concentration with significant reduction) / classification in the NeuriTox screen: screen; for classification in the NeuriTox screen: hit = NA decreased at concentrations not affecting viability
# Procedure: For the NeuriTox test (= UKN4), LUHMES (Lund human mesencephalic) cells were characterized and cultured as described in detail earlier ([Krug et al., 2013]; [Lotharius et al., 2005]; [Scholz et al., 2011]). Briefly, cells were maintained in proliferation medium (PM: AdvDMEM/F12 supplemented with 2 mM glutamine, 1x N2 supplement and 40 ng/ml fibroblast growth factor-2) in PLO/fibronectin coated flasks (50 μg/ml poly-L-ornithine (PLO) and 1 μg/ml fibronectin). For differentiation, cells were seeded at a density of 46,000 cells/cm^2 in PM. After 24 h, they were switched to differentiation medium (DM) containing AdvDMEM/F12 supplemented with 2 mM glutamine, 1x N2 supplement, 2.25 μM tetracycline, 1 mM dibutyryl 3’,5’-cyclic adenosine monophosphate (cAMP), and 2 ng/ml recombinant human glial cell derived neurotrophic factor (GDNF).
# For the NeuriTox test, LUHMES cells were differentiated for 48 h and seeded into 96 well plates at a density of 100,000 cells/cm^2 in a volume of 90 μl DM without cAMP and GDNF. Treatment was initiated applying 10 μl of a 10x concentrated treatment solution one hour after seeding. At 24 h after treatment, staining mix (SM) was applied (final concentrations: 1 μg/ml H-33342, 1 μM calcein-AM).
# (§1) Image acquisition was performed with an ArrayScan VTI HCS (high content imaging) microscope (Cellomics, Waltham, MA, USA).
# The procedure was applied as detailed earlier ([Hoelting et al., 2016]; [Stiegler et al., 2011]). After automated imaging, an algorithm was applied that identified the neuronal somata (based on identified nuclei) and subtracted the somatic area from the total neuronal area to obtain the neurite area (NA), i.e., the number of pixels per field covered by neurites. Viability analysis was performed on the same pictures using combined information from H-33342 and calcein channels. Cells with normal-sized nuclei that were calcein-positive were counted as live cells, whereas H-33342 single-positive cells were counted as dead cells. Viability (V) was expressed as percentage of live cells relative to control.
# (§2) Neurite area (NA) and viability (V) were always expressed as percentage of the DMSO control. In a first step, matched technical replicates were averaged. […] Curve fitting was performed employing a 4-parameter log-logistic function with least squares fit. The upper asymptote of the fit was forced to 100%, the lower asymptote was variable. The variation of DMSO controls was calculated from pooled values of DMSO controls over several experiments.
# For calculation of the benchmark concentration values (BMC), a benchmark response (BMR) of three standard deviations of DMSO solvent controls of all assay plates (= “3 x noise level”) was used. […] To identify specific effects on neurite outgrowth, the EC50 ratio of EC50(viability)/EC50(neurite area) was calculated. The NeuriTox test system has a specificity threshold ratio of 4, the PeriTox test system has one of 3 ([Hoelting et al., 2016]; [Krug et al., 2013]).
# If V was not affected at the highest tested concentration (HTC), then 4 x HTC was used as surrogate EC50(V) (marked with ♦; for EC25 calculation, the HTC was doubled in this case) ([Krug et al., 2013]).
# For the actual screening procedure, a defined workflow was established that contained several pre-determined decision points. All compounds were tested at 1:1000 dilutions of their stock concentration, and at subsequent 3-fold dilution levels. For most compounds, the stock was 20 mM, so that the test concentrations were 20 μM, 6.7 μM, 2.2 μM, 0.7 μM, 0.25 μM, 82 nM, 27 nM, 9 nM, 3 nM, and 1 nM. For 2,2’,4,4’,5,5’-hexabromodiphenyl-ether, chrysene, dibenz(a,h)anthracene, bis(tributyltin) oxide, benzo[g,h,i]perylene, and 2,3,7,8-tetrachlorodibenzo-p-dioxin lower stock concentrations were used.
# [2] = test system: immature human dorsal root ganglia neurons; assay: cells; assay type: cell-based; details: for EC50: Homo sapiens, Neuron; for classification in the PeriTox screen: three independent screen runs, up to 20 μM
# Procedure: The PeriTox test (= UKN5) is based on cells differentiated from the H9 human embryonic stem cell (hESC) line (WA09 line), which was obtained from WiCell (Madison, WI, USA). The import of cells and the experiments were authorized under license no. 170–79-1–4-27 (Robert Koch Institute, Berlin, Germany).
# After one hour, 25 μl PDM with 4x concentrated serial dilutions of the test compounds was added to the cells. At 23 h after treatment, the cells were stained with SM and incubated for one additional hour at 37°C.
# as §1
# After automated imaging, an algorithm was applied that identified the neuronal somata (based on identified nuclei) and subtracted the somatic area from the total neuronal area to obtain the neurite area (NA), i.e., the number of pixels per field covered by neurites. […] Viability (V) was expressed as percentage of live cells relative to control.
# as §2
# For calculation of the benchmark concentration values (BMC), a benchmark response (BMR) of three standard deviations of DMSO solvent controls of all assay plates (= “3 x noise level”) was used. […] To identify specific effects on neurite outgrowth, the EC50 ratio of EC50(viability)/EC50(neurite area) was calculated.
# This method uses human immature dorsal root ganglia neurons (iDRG) that are produced from pluripotent stem cells that are still in a phase of neurite growth. Like in the NeuriTox assay, exposure to toxicants in this test is for 24 h, and readouts for viability (V) and neurite area (NA) are also conducted in a similar way (Fig. 7A).
# [3] = test system: cardiomyocytes; details: specific = cardio-physiologic parameters affected after 30 min at three-fold lower concentration than viability and no effect on viability after 24 h; ref Sirenko et al., 2017; cited from earlier work
# [4] = Homo sapiens, hit confirmation / re-testing, adjusted concentration range, 24 h, read-out: EC50(NA), neurite area
# [5] = 24 h, read-out: EC50(NA), neurite area
# [6] = read-out: EC50(V), viability, surrogate marked ♦
# [7] = Homo sapiens, 24 h, read-out: EC50(NA), neurite area
smiles,measurement,setting,value
O=C1N[C@@H]2C(=C[C@H](O)[C@@H](O)[C@H]2O)c2cc3c(c(O)c21)OCO3 [narciclasine],neurite area vs solvent control,"[1]; 50 nM, 24 h, positive control",significantly reduced
"Brc1ccc(Oc2cc(Br)c(Br)cc2Br)c(Br)c1 [PBDE, 2,2’,4,4’,5’-pentabromodiphenylether]",classification / outcome after hit confirmation or re-testing (EC50 prediction model),[1],unspecific cytotoxicants
O=C1C2CC=CCC2C(=O)N1SC(Cl)(Cl)Cl (stereo not drawn) [Captan],classification / outcome after hit confirmation or re-testing (EC50 prediction model),[1],cytotoxicant with relatively low potency
COc1ccc2cc3[n+](cc2c1OC)CCc1cc2c(cc1-3)OCO2 [Berberine chloride],EC50,"[2]; hit confirmation, 24 h, read-out: EC50(NA), neurite area",11.6 µM
same,EC50,"[2]; hit confirmation, V not affected at HTC: 4 x HTC used as surrogate, read-out: EC50(V), viability, surrogate marked ♦",165 µM
same,classification in the PeriTox screen,[2],active hit compounds
same,classification in the cardiotoxicity test method,[3],generally cytotoxic
same,EC50,[1]; [4],23.9 µM
same,EC50,"[1]; Homo sapiens, hit confirmation, adjusted concentration range, 24 h, read-out: EC50(V), viability",126 µM
same,LOAEL for neurite area (lowest tested concentration with significant reduction),[1]; 24 h,20 µM
same,classification in the NeuriTox screen,"[1]; up to 20 μM, 24 h",active hit compounds
COc1cc2c(c(OC)c1OC)-c1ccc(OC)c(=O)cc1[C@@H](NC(C)=O)CC2 [Colchicine],classification in the PeriTox screen,[2],active hit compounds
same,LOAEL for neurite area (lowest tested concentration with significant reduction),[1]; 24 h,0.027 µM
same,classification in the NeuriTox screen,"[1]; up to 20 μM, 24 h",active hit compounds
C=C(C)[C@H]1Cc2c(ccc3c2O[C@@H]2COc4cc(OC)c(OC)cc4[C@@H]2C3=O)O1 [Rotenone],EC50,[2]; [5],0.05 µM
same,EC50,[2]; [6],16.5 µM
same,ratio EC50(V)/EC50(NA),"[2]; hit confirmation, ≥ 3 = specific hit",330
same,classification in the PeriTox screen,[2],active hit compounds
same,classification in the cardiotoxicity test method,[3],generally cytotoxic
same,EC50,[1]; [7],0.5 µM
same,EC50,"[1]; Homo sapiens, read-out: EC50(V), viability, surrogate marked ♦",40 µM
same,classification in the NeuriTox screen,"[1]; up to 20 μM, 24 h",active hit compounds
CCN(CC)C(=S)SSC(=S)N(CC)CC [Tetraethylthiuram disulfide],EC50,"[1]; screen data, 24 h exposure, up to 20 μM, read-out: EC50(NA), neurite area",3.7 µM
same,EC50,"[1]; screen data, 24 h exposure, up to 20 μM, read-out: EC50(V), viability",2.9 µM
same,ratio EC50(V)/EC50(NA),"[1]; screen data, specificity threshold 4",0.8
"C[n+]1ccc(-c2ccccc2)cc1.[I-] [MPP^+, 1-methyl-4-phenylpyridinium iodide]",classification / outcome after hit confirmation (EC50 ratio viability/neurite area ≥ 3),[2],not active at all
same,EC50,[1]; [4],80 µM
same,classification in the NeuriTox screen,"[1]; up to 20 μM, 24 h",active hit compounds
CC(C)[C@@H]1NC(=O)[C@H](C)OC(=O)[C@@H](C(C)C)NC(=O)[C@@H](C(C)C)OC(=O)[C@H](C(C)C)NC(=O)[C@H](C)OC(=O)[C@@H](C(C)C)NC(=O)[C@@H](C(C)C)OC(=O)[C@H](C(C)C)NC(=O)[C@H](C)OC(=O)[C@@H](C(C)C)NC(=O)[C@@H](C(C)C)OC1=O [Valinomycin],EC50,[2]; [5],0.003 µM
same,EC50,"[2]; read-out: EC50(NA), neurite area",0.02 µM
same,EC50,[2]; [6],0.2 µM
same,classification in the PeriTox screen,[2],active hit compounds
same,classification in the cardiotoxicity test method,[3],generally cytotoxic
same,EC50,[1]; [7],0.01 µM
same,EC50,"[1]; Homo sapiens, 24 h, read-out: EC50(V), viability",6.2 µM
same,EC50,"[1]; Homo sapiens, read-out: EC50 for reduction of neurite area",0.01 µM
same,ratio EC50(V)/EC50(NA),"[1]; hit confirmation, ≥ 4 = specific (developmental) neurotoxicant",620
same,classification by BMC ratio (BMCV/BMCNA),"[1]; screen data, threshold changed to 2",specific DNT-compounds
same,classification by BMC ratio (BMCV/BMCNA),"[1]; screen data, threshold set at 3.16",cytotoxic
same,classification in the NeuriTox screen,"[1]; up to 20 μM, 24 h",active hit compounds
"CC(C)(c1ccc(O)cc1)c1ccc(O)cc1 [BPA, bisphenol A]",classification / outcome after hit confirmation or re-testing (EC50 prediction model),[1],no effect up to 100 μM
CCC[CH2][Sn]([CH2]CCC)([CH2]CCC)[O][Sn]([CH2]CCC)([CH2]CCC)[CH2]CCC [bis(tributyltin)oxide],classification in the NeuriTox screen,"[1]; up to 20 μM, 24 h",cytotoxic
